Source: the NIST ThermoML archive (doi:10.1016/j.jct.2013.01.032)
Numbers after ± are expanded uncertainties.

Conditions: 101.33 kPa, Liquid; for speed of sound: Sing-around technique in a fixed-path interferometer; for mass density: Vibrating tube method

| Compound | speed of sound (293.15 K) | mass density (293.15 K) | speed of sound (308.15 K) | mass density (308.15 K) | speed of sound (323.15 K) | mass density (323.15 K) |
| --- | --- | --- | --- | --- | --- | --- |
| CCC(C)O (stereo not given) [butan-2-ol] | 1230 ± 1 m/s | 806.56 ± 0.18 kg/m3 | 1175.8 ± 0.9 m/s | 794 ± 0.19 kg/m3 | 1120.3 ± 0.9 m/s | 780.5 ± 0.19 kg/m3 |
| CCCCCO [pentan-1-ol] | 1292.7 ± 1.3 m/s | 814.53 ± 0.31 kg/m3 | 1242.4 ± 1.3 m/s | 803.52 ± 0.31 kg/m3 | 1192.7 ± 1.3 m/s | 792.15 ± 0.31 kg/m3 |
| CCCO [propan-1-ol] | 1223.9 ± 0.8 m/s | 803.92 ± 0.14 kg/m3 | 1172.6 ± 0.8 m/s | 791.84 ± 0.15 kg/m3 | 1122 ± 0.8 m/s | 779.33 ± 0.16 kg/m3 |

Next, values leading:

| speed of sound (293.15 K) | mass density (293.15 K) | speed of sound (308.15 K) | mass density (308.15 K) | speed of sound (323.15 K) | mass density (323.15 K) | Compound |
| --- | --- | --- | --- | --- | --- | --- |
| 1402.9 ± 1.3 m/s | 1303.7 ± 0.6 kg/m3 | 1369.1 ± 1.3 m/s | 1291.7 ± 0.6 kg/m3 | 1336.5 ± 1.3 m/s | 1279.9 ± 0.6 kg/m3 | CCCCn1cc[n+](C)c1.O=S(=O)([O-])C(F)(F)F [1-butyl-3-methylimidazolium trifluoromethanesulfonate] |
| 1256.2 ± 0.8 m/s | 809.54 ± 0.14 kg/m3 | 1205.9 ± 0.8 m/s | 798.01 ± 0.15 kg/m3 | 1155.7 ± 0.8 m/s | 786.15 ± 0.15 kg/m3 | CCCCO [butan-1-ol] |
| 1156.7 ± 0.8 m/s | 785.1 ± 0.15 kg/m3 | – | 772.31 ± 0.16 kg/m3 | 1050.8 ± 0.7 m/s | 758.7 ± 0.17 kg/m3 | CC(C)O [propan-2-ol] |
